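Briefly, cells in 96-well plates were exposed to five compound concentrations for 48 h, and endpoints were estimated by linear interpolation. GI50 marks 50% less growth.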 Calls of active or inactive are those of the source. Rule as the data show it: active = GI50 up to about 1.1 µM and inactive = higher.
Experiments:
Experiment in all cases: growth of human tumour cells (NCI), 48 h
[1] = tested on: ACHN
[2] = tested on: U-251
[3] = tested on: NCI-H522
[4] = tested on: KM12
[5] = tested on: IGROV-1
[6] = tested on: HCT-116
[7] = tested on: OVCAR-4
[8] = tested on: OVCAR-3
[9] = tested on: CAKI-1
[10] = tested on: OVCAR-5
[11] = tested on: A498
[12] = tested on: SK-MEL-2
[13] = tested on: HCC 2998
[14] = tested on: SN12C
[15] = tested on: SNB-75
[16] = tested on: RPMI-8226
[17] = tested on: SNB-19

Measured: GI50

CC(C)C(=O)NC(=S)Nc1ccc([N+](=O)[O-])cc1C#N
inactive: [1] > 100 µM | [2] > 100 µM | [3] > 100 µM | [4] > 100 µM | [5] > 100 µM | [6] > 100 µM | [7] > 100 µM | [8] > 100 µM | [9] 66.2 µM | [10] > 100 µM | [11] > 100 µM | [12] > 100 µM | [13] > 100 µM | [14] 22 µM | [15] 16.7 µM | [16] > 100 µM | [17] > 100 µM

CC(=O)c1ccccc1NC(=O)C(=O)C(C(=O)c1ccccc1-c1ccccc1)C1OC(=O)c2ccccc21 (configuration not stated)
inactive: [1] 22.5 µM | [2] 16 µM | [3] 14.7 µM | [4] 18 µM | [5] 22.2 µM | [6] 17.8 µM | [7] 33.7 µM | [8] 20.7 µM | [9] 37.8 µM | [10] 29.2 µM | [11] 20.5 µM | [12] 17.2 µM | [13] 16.2 µM | [14] 17.1 µM | [15] 25.5 µM | [16] 27.3 µM | [17] 22.1 µM

CCCCCCCCCCCC(=O)OCCOCCOCCOCCOCCOCc1ccccc1
inactive: [1] > 100 µM | [2] > 100 µM | [3] > 100 µM | [4] > 100 µM | [5] > 100 µM | [6] > 100 µM | [7] > 100 µM | [8] > 100 µM | [9] > 100 µM | [10] > 100 µM | [11] > 100 µM | [12] > 100 µM | [13] > 100 µM | [14] > 100 µM | [15] > 100 µM | [16] > 100 µM | [17] > 100 µM

N#CCCN(c1ccc(/C=N/c2ccc(C(=O)O)cc2)cc1)S(=O)(=O)c1ccccc1
inactive: [1] > 100 µM | [2] > 100 µM | [3] > 100 µM | [4] > 100 µM | [5] > 100 µM | [6] > 100 µM | [7] > 100 µM | [8] > 100 µM | [9] > 100 µM | [10] > 100 µM | [11] > 100 µM | [12] > 100 µM | [13] > 100 µM | [14] > 100 µM | [15] > 100 µM | [16] > 100 µM | [17] > 100 µM

Cc1c(Cl)ccc2c1NC(=O)C2(O)C(C(=O)c1ccccc1)c1ccccc1 (configuration not stated)
inactive: [1] 72.4 µM | [2] 34.8 µM | [3] 27.7 µM | [4] 55.3 µM | [5] > 100 µM | [6] 75.9 µM | [7] 10.7 µM | [8] > 10 µM | [9] 58.3 µM | [10] 32.7 µM | [11] 24 µM | [12] > 100 µM | [13] 97.9 µM | [14] 76.6 µM | [15] 46.7 µM | [16] 25.9 µM | [17] 62.8 µM

C=CCc1ccc(Oc2cc(CC=C)c3c(c2O)O[C@@H](CO)[C@H]3c2ccc(O)c(-c3cc(CC=C)ccc3O)c2)cc1
inactive: [1] 67 µM | [2] 23.1 µM | [3] 18.3 µM | [4] 35.3 µM | [5] 32.7 µM | [6] 61.9 µM | [7] 54.7 µM | [8] 33 µM | [9] > 100 µM | [10] > 100 µM | [11] 80 µM | [12] 24.3 µM | [13] 45.9 µM | [14] 41.9 µM | [15] > 100 µM | [16] 32.5 µM | [17] 39.5 µM
